The values that follow come from ChEMBL document CHEMBL1141927, “Quorum sensing in Vibrio harveyi: probing the specificity of the LuxP binding site” (Bioorg Med Chem Lett, 2005).

This test is described as follows: Effective concentration to induce a quorum signal in Vibrio harveyi(by binding Lux P protein). In kind it is functional.

Each structure is given as a SMILES string.

Turning to `CC(=O)C(=O)[C@H](O)[C@H](O)CO`, the concentration giving a half-maximal response (EC50) (as a rule, the concentration giving half of the maximal effect) amounted to 429 µM.

Consider `CC(=O)C(=O)[C@@H](O)CO`, for which the EC50 worked out at 0.044 µM.

`CC(=O)C(=O)CCO` had an EC50 of 27 µM.

For the compound `CC(=O)C(=O)[C@H](O)CO`, the EC50 is 84 µM.

On to `O=C(CO)[C@@H](O)[C@H](O)CO`, for which a half-maximal response (EC50) required 560 µM.

Consider `O=C(CO)[C@H](O)[C@H](O)CO`, for which the EC50 was 108 µM.

In turn, `O=C1O[C@H]([C@@H](O)CO)C(O)=C1O` [ASCORBIC ACID] gave an EC50 of 737 µM.
